Measurements from patent US11590116B2 (THERAVANCE BIOPHARMA R&D IP, LLC, priority 2019, dated 2023).

Key:
[1] = target: T1, recombinant human ALK5 (TGF-βR1) protein (Homo sapiens, UniProt P36897); assay: Biochemical ALK5 (TGF-βR1) assay to measure pKi (LANCE Ultra ULight kinase assay); settings: apparent pKi from pIC50 by Cheng-Prusoff, read-out: ALK5 pKi (converted)
T1 construct: purchased Life Technologies PR9075A
T1 sequence (P36897 34-503): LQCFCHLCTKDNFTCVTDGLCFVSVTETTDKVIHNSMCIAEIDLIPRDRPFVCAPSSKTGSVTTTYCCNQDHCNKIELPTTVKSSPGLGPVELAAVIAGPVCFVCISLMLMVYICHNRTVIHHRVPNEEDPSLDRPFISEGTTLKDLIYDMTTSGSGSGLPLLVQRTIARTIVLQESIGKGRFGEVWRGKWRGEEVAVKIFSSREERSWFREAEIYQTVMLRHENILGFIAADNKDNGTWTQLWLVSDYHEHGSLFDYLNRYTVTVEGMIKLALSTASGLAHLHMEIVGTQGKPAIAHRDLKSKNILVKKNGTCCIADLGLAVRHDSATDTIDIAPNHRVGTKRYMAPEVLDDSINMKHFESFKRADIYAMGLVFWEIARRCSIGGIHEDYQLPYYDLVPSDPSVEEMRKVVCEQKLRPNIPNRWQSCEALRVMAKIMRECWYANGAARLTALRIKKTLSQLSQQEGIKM
Outline: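 Compounds (10 μM to 25 pM) preincubated 60 minutes at room temperature with enzyme, then reaction run 60 minutes at 37° C with ATP added as 125 μM (5× final). Stopped with EDTA plus Eu-anti-phospho-Topoisomerase 2-alpha (Thr1342) antibody, TR-FRET read at 665 nm; pIC50 converted to pKi via Cheng-Prusoff.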

[2] = tested on: TGF-β-stimulated SMAD3 phosphorylation in BEAS-2B cells; assay: Cellular ALK5 potency assay, inhibition of TGF-β stimulated pSMAD3 formation in BEAS-2B cells; assay type: cell-based; settings: Homo sapiens; inhibition of TGF-β stimulated pSMAD3 formation, BEAS-2B cells; read-out: BEAS2B pIC50 (converted)
Outline: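 BEAS-2B human lung epithelial cells, seeded overnight, were pre-treated with compound in HBSS/25 mM HEPES/1% BSA for 1 h at 37 °C, then stimulated with TGF-β (final 10 ng/mL) for 30 min. Lysates were assayed for pSMAD3 by AlphaLISA; pIC50 came from dose-dependent signal change versus TGF-β-stimulated untreated cells.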

| SMILES | Ki [1] | IC50 [2] |
| --- | --- | --- |
| Cc1cccc(-c2[nH]cnc2-c2ccc3ncc(C(=O)OCCN4CCCCC4)cc3c2)n1 [Compound 887, 2-(piperidin-1-yl)ethyl 6-(5-(6-methylpyridin-2-yl)-1H-imidazol-4-yl)quinoline-3-carboxylate] | 0.0398 to 0.316 nM | 25.1 to 158 nM |
| Cc1cccc(-c2[nH]cnc2-c2ccc3ncc(-c4nccc(C(=O)O[C@@H]5CCNC5)n4)cc3c2)n1 [Compound 1093, [(3R)-pyrrolidin-3-yl] 2-[6-[5-(6-methyl-2-pyridyl)-1H-imidazol-4-yl]-3-quinolyl]pyrimidine-4-carboxylate] | 0.398 to 3.16 nM | 200 to 1260 nM |
| Cc1nc(-c2n[nH]cc2-c2ccc3ncc(-c4cnn([C@@H]5CCC[C@@H]5N)c4)cc3n2)ccc1F [Compound 569, (1S,2R)-2-[4-[6-[3-(5-fluoro-6-methyl-2-pyridyl)-1H-pyrazol-4-yl]-1,5-naphthyridin-3-yl]pyrazol-1-yl]cyclopentanamine] | 0.0398 to 0.316 nM | 25.1 to 158 nM |
| Cc1cccc(-c2[nH]cnc2-c2ccc3ncc(C(=O)OC4CCNCC4)cc3c2)n1 [Compound 740, piperidin-4-yl 6-(5-(6-methylpyridin-2-yl)-1H-imidazol-4-yl)quinoline-3-carboxylate] | 0.0398 to 0.316 nM | 25.1 to 158 nM |
| Cc1cccc(-c2n[nH]cc2-c2ccc3ncc(-c4ccc[nH]4)cc3n2)n1 [Compound 591, 2-[3-(6-methyl-2-pyridyl)-1H-pyrazol-4-yl]-7-(1H-pyrrol-2-yl)-1,5-naphthyridine] | < 0.0316 nM | < 20 nM |
| Cc1cccc(-c2[nH]cnc2-c2ccc3ncc(N4CCC(C(=O)OCC5CNC5)CC4)cc3c2)n1 [Compound 424, azetidin-3-ylmethyl 1-[6-[5-(6-methyl-2-pyridyl)-1H-imidazol-4-yl]-3-quinolyl]piperidine-4-carboxylate] | 0.0398 to 0.316 nM | 200 to 1260 nM |
| Cc1cccc(-c2nnn(Cc3ccccc3)c2-c2ccc3ncc(-c4cn[nH]c4)cc3c2)n1 [Compound 254, 6-[3-benzyl-5-(6-methyl-2-pyridyl)triazol-4-yl]-3-(1H-pyrazol-4-yl)quinoline] | 0.0398 to 0.316 nM | 25.1 to 158 nM |
| Cc1cccc(-c2[nH]ncc2-c2ccc3ncc(C(=O)OC4CCN(C)C4)cc3n2)n1 (stereo not shown) [Compound 523, (1-methylpyrrolidin-3-yl) 6-[5-(6-methyl-2-pyridyl)-1H-pyrazol-4-yl]-1,5-naphthyridine-3-carboxylate] | 0.0398 to 0.316 nM | 25.1 to 158 nM |
| Cc1cccc(-c2[nH]ncc2-c2ccc3nccc(C(=O)OCCC4CNC4)c3c2)n1 [Compound 1136, 2-(azetidin-3-yl)ethyl 6-[5-(6-methyl-2-pyridyl)-1H-pyrazol-4-yl]quinoline-4-carboxylate] | 0.398 to 3.16 nM | 200 to 1260 nM |
| CNC1CN(c2cnc3ccc(-c4c[nH]nc4-c4cccc(C)n4)nc3c2)C1 [Compound 94, N-methyl-1-[6-[3-(6-methyl-2-pyridyl)-1H-pyrazol-4-yl]-1,5-naphthyridin-3-yl]azetidin-3-amine] | 0.0398 to 0.316 nM | 25.1 to 158 nM |
| Cc1cccc(-c2[nH]cnc2-c2ccc3ncc(-c4csc(C(=O)OCC5CNC5)c4)cc3c2)n1 [Compound 753, azetidin-3-ylmethyl 4-(6-(5-(6-methylpyridin-2-yl)-1H-imidazol-4-yl)quinolin-3-yl)thiophene-2-carboxylate] | 0.0398 to 0.316 nM | 25.1 to 158 nM |
| Cc1cccc(-c2n[nH]cc2-c2ccc3ncc(-c4[nH]nc5c4CCN5)cc3n2)n1 [Compound 393, 2-[3-(6-methyl-2-pyridyl)-1H-pyrazol-4-yl]-7-(2,4,5,6-tetrahydropyrrolo[2,3-c]pyrazol-3-yl)-1,5-naphthyridine] | < 0.0316 nM | 25.1 to 158 nM |
| Cc1nc(-c2nc3ccccn3c2-c2ccc3ncc(-c4cnn5c4CNCC5)cc3n2)ccc1F [Compound 89, 2-[2-(5-fluoro-6-methyl-2-pyridyl)imidazo[1,2-a]pyridin-3-yl]-7-(4,5,6,7-tetrahydropyrazolo[1,5-a]pyrazin-3-yl)-1,5-naphthyridine] | 0.0398 to 0.316 nM | 25.1 to 158 nM |
| COC(=O)c1coc(-c2cnc3ccc(-c4c[nH]nc4-c4cccc(C)n4)nc3c2)n1 [Compound 582, methyl 2-[6-[3-(6-methyl-2-pyridyl)-1H-pyrazol-4-yl]-1,5-naphthyridin-3-yl]oxazole-4-carboxylate] | < 0.0316 nM | 25.1 to 158 nM |
| Cc1cccc(-c2[nH]cnc2-c2ccc3ncc(C4=CCC(C(=O)O[C@@H]5CCN(C)C5)CC4)cc3c2)n1 (stereo partly drawn) [Compound 710, [(3R)-1-methylpyrrolidin-3-yl] 4-[6-[5-(6-methyl-2-pyridyl)-1H-imidazol-4-yl]-3-quinolyl]cyclohex-3-ene-1-carboxylate] | 0.0398 to 0.316 nM | 25.1 to 158 nM |
| Cc1cccc(-c2[nH]cnc2-c2ccc3ncc(-c4cnc(C(=O)OC5CCNCC5)nc4)cc3c2)n1 [Compound 1131, 4-piperidyl 5-[6-[5-(6-methyl-2-pyridyl)-1H-imidazol-4-yl]-3-quinolyl]pyrimidine-2-carboxylate] | 0.0398 to 0.316 nM | 200 to 1260 nM |
| Cc1cccc(-c2n[nH]cc2-c2ccc3ncc(-c4cn(-c5ccccn5)nn4)cc3n2)n1 [Compound 680, 2-[3-(6-methyl-2-pyridyl)-1H-pyrazol-4-yl]-7-[1-(2-pyridyl)triazol-4-yl]-1,5-naphthyridine] | 0.398 to 3.16 nM | 200 to 1260 nM |
| Cc1cccc(-c2[nH]cnc2-c2ccc3ncc(-c4ccc(C(=O)O[C@@H]5CCNC5)cc4)cc3c2)n1 [Compound 716, [(3R)-pyrrolidin-3-yl] 4-[6-[5-(6-methyl-2-pyridyl)-1H-imidazol-4-yl]-3-quinolyl]benzoate] | 0.0398 to 0.316 nM | 25.1 to 158 nM |
| Cc1cccc(-c2[nH]cnc2-c2ccc3ncc(-c4ccc(C(=O)OCCN5CCNCC5)nc4)cc3c2)n1 [Compound 1054, 2-piperazin-1-ylethyl 5-[6-[5-(6-methyl-2-pyridyl)-1H-imidazol-4-yl]-3-quinolyl]pyridine-2-carboxylate] | 0.0398 to 0.316 nM | 200 to 1260 nM |
| Cc1nc(-c2n[nH]cc2-c2ccc3ncc(N4CCN(CCO)CC4)cc3n2)ccc1F [Compound 509, 2-[4-[6-[3-(5-fluoro-6-methyl-2-pyridyl)-1H-pyrazol-4-yl]-1,5-naphthyridin-3-yl]piperazin-1-yl]ethanol] | < 0.0316 nM | 25.1 to 158 nM |
| Cc1nc(-c2n[nH]cc2-c2ccc3ncc(-c4cnn(C[C@@H]5CC[C@H](N)C5)c4)cc3n2)ccc1F (racemic) [Compound 547, rac-(1S,3R)-3-[[4-[6-[3-(5-fluoro-6-methyl-2-pyridyl)-1H-pyrazol-4-yl]-1,5-naphthyridin-3-yl]pyrazol-1-yl]methyl]cyclopentanamine] | 0.0398 to 0.316 nM | 200 to 1260 nM |
| Cc1cccc(-c2n[nH]cc2-c2ccc3ncc(N4CCN(CCN)CC4)cc3n2)n1 [Compound 281, 2-[4-[6-[3-(6-methyl-2-pyridyl)-1H-pyrazol-4-yl]-1,5-naphthyridin-3-yl]piperazin-1-yl]ethanamine] | < 0.0316 nM | 200 to 1260 nM |
| Cc1cccc(-c2[nH]nnc2-c2ccc3ncc(-c4cn[nH]c4)cc3n2)n1 [Compound 301, 2-[5-(6-methyl-2-pyridyl)-1H-triazol-4-yl]-7-(1H-pyrazol-4-yl)-1,5-naphthyridine] | 0.0398 to 0.316 nM | 25.1 to 158 nM |
